Source: patent US12391648B2, “Pyridyloxy thioester derivative and preparation method therefor, herbicidal composition, and application” (Qingdao Kingagroot Chemical Compound Co., Ltd., priority 2018, dated 2025)

Experiments:
Assay type in all cases: in vivo
[1] = tested on: ALS resistant Cyperus iria; assay: Post-emergence test experiment (Table 4), weed control; settings: 100 g/ha, after 3 weeks
Description: (§1) The activity level standard of harmful plants destruction (i. e. growth inhibition rate) is as follows: • Level 5: the growth inhibition rate is greater than 85%; • Level 4: the growth inhibition rate is equal to or greater than 60% and less than 85%; • Level 3: the growth inhibition rate is equal to or greater than 40% and less than 60%; • Level 2: the growth inhibition rate is equal to or greater than 20% and less than 40%; • Level 1: the growth inhibition rate is equal to or greater than 5% and less than 20%; • Level 0: the growth inhibition rate is less than 5%;
(§2) The above described growth inhibition rate is fresh weight inhibition rate.
(§3) Post-emergence test experiment: Monocotyledonous and dicotyledonous weed seeds and main crop seeds (i. e. wheat, corn, rice, soybean, cotton, oilseed, millet and sorghum.) were put into a plastic pot loaded with soil. Then covered with 0.5-2 cm soil, the seeds were allowed to grow in good greenhouse environment. The test plants were treated at 2-3 leaf stage 2 weeks after sowing. The test compounds of the invention were dissolved with acetone respectively, then added with tween-80, and using 1.5 liters per hectare of an emulsible concentrate of methyl oleate as a synergist, and diluted by certain amount of water to certain concentration. The solution was sprayed to the plants with a sprayer. Then the plants were cultured for 3 weeks in the greenhouse, and the experiment result of weed controlling effect after 3 weeks was listed in tables 3-4.
(§4) […] Echinochloa crusgalli and Cyperus iria were collected from Ningxia Hui Autonomous Region of China, which had evolved resistance to ALS inhibiting herbicides. • Control compound A:

[2] = tested on: ALS resistant Echinochloa crusgalli; assay: as above; settings: 100 g/ha, after 3 weeks
Description: as §1, §2, §3, §4

[3] = tested on: Japonica rice; assay: Post-emergence test experiment (Table 4), crop safety; settings: 100 g/ha, after 3 weeks
Description: as §1, §2, §3, §4

[4] = tested on: Indica rice; assay: as above; settings: 100 g/ha, after 3 weeks
Description: as §1, §2, §3, §4

[5] = tested on: Monochoria vaginalis; assay: Post-emergence test experiment (Table 3, 1000 g/ha); settings: post-emergence spray, after 3 weeks, fresh weight inhibition
Summary of the method: (§5)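 Activity graded levels 0-5 by fresh-weight inhibition (level 5 above 85%, level 0 below 5%), assessed 3 weeks after treatment. Plants grown in greenhouse pots were sprayed post-emergence at 2-3 leaves using acetone/tween-80 solutions with methyl oleate synergist (1.5 L/ha).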

[6] = tested on: Abutilon theophrasti; assay: as above; settings: post-emergence spray, after 3 weeks, fresh weight inhibition
Summary of the method: as §5

[7] = tested on: Setaria viridis; assay: as above; settings: post-emergence spray, after 3 weeks, fresh weight inhibition
Summary of the method: as §5

[8] = tested on: Digitaria sanguinalis; assay: as above; settings: post-emergence spray, after 3 weeks, fresh weight inhibition
Summary of the method: as §5

[9] = tested on: Leptochloa chinensis; assay: as above; settings: post-emergence spray, after 3 weeks, fresh weight inhibition
Summary of the method: as §5

[10] = tested on: Galium spurium; assay: as above; settings: post-emergence spray, after 3 weeks, fresh weight inhibition
Summary of the method: as §5

Row | SMILES | ALS resistant Cyperus iria, activity level (growth inhibition rate) [1] | ALS resistant Echinochloa crusgalli, activity level (growth inhibition rate) [2] | Japonica rice, activity level (growth inhibition rate) [3] | Indica rice, activity level (growth inhibition rate) [4] | Activity level (growth inhibition rate) Monochoria Vaginalis [5] | Activity level (growth inhibition rate) Abutilon theophrasti [6] | Activity level (growth inhibition rate) Setaria viridis [7] | Activity level (growth inhibition rate) Digitaria sanguinalis [8] | Activity level (growth inhibition rate) Leptochloa chinensis [9] | Activity level (growth inhibition rate) Galium spurium [10]
1 | COc1cc(OC)nc(Oc2cccc(Oc3nc(OC)cc(OC)n3)c2C(=O)O)n1 [Bispyribac-sodium, reference compound] | 1 (Level 1: the growth inhibition rate is equal to or greater than 5% and less than 20%) | 1 (Level 1: the growth inhibition rate is equal to or greater than 5% and less than 20%) | 4 (Level 4: the growth inhibition rate is equal to or greater than 60% and less than 85%) | 2 (Level 2: the growth inhibition rate is equal to or greater than 20% and less than 40%) | – | – | – | – | – | –
2 | CC(Oc1nc(F)c(Cl)c(N)c1Cl)C(=O)SCC(F)F (stereo not shown) [Compound 157] | – | – | – | – | 5 (Level 5: the growth inhibition rate is greater than 85%) | 5 (Level 5: the growth inhibition rate is greater than 85%) | 5 (Level 5: the growth inhibition rate is greater than 85%) | 5 (Level 5: the growth inhibition rate is greater than 85%) | 5 (Level 5: the growth inhibition rate is greater than 85%) | 5 (Level 5: the growth inhibition rate is greater than 85%)
3 | CC(Oc1nc(F)c(Cl)c(N)c1Cl)C(=O)SCCF (stereo not shown) [Compound 158] | – | – | – | – | 5 (Level 5: the growth inhibition rate is greater than 85%) | 5 (Level 5: the growth inhibition rate is greater than 85%) | 5 (Level 5: the growth inhibition rate is greater than 85%) | 5 (Level 5: the growth inhibition rate is greater than 85%) | 5 (Level 5: the growth inhibition rate is greater than 85%) | 5 (Level 5: the growth inhibition rate is greater than 85%)
4 | CCC(C)CSC(=O)C(C)Oc1nc(F)c(Cl)c(N)c1Cl (stereo not shown) [Compound 145] | – | – | – | – | 5 (Level 5: the growth inhibition rate is greater than 85%) | 5 (Level 5: the growth inhibition rate is greater than 85%) | 5 (Level 5: the growth inhibition rate is greater than 85%) | 5 (Level 5: the growth inhibition rate is greater than 85%) | 5 (Level 5: the growth inhibition rate is greater than 85%) | 5 (Level 5: the growth inhibition rate is greater than 85%)
5 | Cc1cc(SC(=O)C(C)Oc2nc(F)c(Cl)c(N)c2Cl)n(C)n1 (stereo not shown) [Compound 117] | – | – | – | – | 5 (Level 5: the growth inhibition rate is greater than 85%) | 5 (Level 5: the growth inhibition rate is greater than 85%) | 5 (Level 5: the growth inhibition rate is greater than 85%) | 5 (Level 5: the growth inhibition rate is greater than 85%) | 5 (Level 5: the growth inhibition rate is greater than 85%) | 5 (Level 5: the growth inhibition rate is greater than 85%)
6 | CCNc1c(Cl)c(F)nc(OC(C)C(=O)SC)c1Cl (stereo not shown) [Compound 128] | – | – | – | – | 5 (Level 5: the growth inhibition rate is greater than 85%) | 5 (Level 5: the growth inhibition rate is greater than 85%) | 5 (Level 5: the growth inhibition rate is greater than 85%) | 5 (Level 5: the growth inhibition rate is greater than 85%) | 5 (Level 5: the growth inhibition rate is greater than 85%) | 5 (Level 5: the growth inhibition rate is greater than 85%)
7 | CC(Oc1nc(F)c(Cl)c(N)c1Cl)C(=O)SCC(=O)N(C)C (stereo not shown) [Compound 99] | – | – | – | – | 5 (Level 5: the growth inhibition rate is greater than 85%) | 5 (Level 5: the growth inhibition rate is greater than 85%) | 5 (Level 5: the growth inhibition rate is greater than 85%) | 5 (Level 5: the growth inhibition rate is greater than 85%) | 5 (Level 5: the growth inhibition rate is greater than 85%) | 5 (Level 5: the growth inhibition rate is greater than 85%)
8 | CC(C)CCCCCSC(=O)C(C)Oc1nc(F)c(Cl)c(N)c1Cl (stereo not shown) [Compound 136] | – | – | – | – | 5 (Level 5: the growth inhibition rate is greater than 85%) | 5 (Level 5: the growth inhibition rate is greater than 85%) | 5 (Level 5: the growth inhibition rate is greater than 85%) | 5 (Level 5: the growth inhibition rate is greater than 85%) | 5 (Level 5: the growth inhibition rate is greater than 85%) | 5 (Level 5: the growth inhibition rate is greater than 85%)
9 | CCC(CC)SC(=O)C(C)Oc1nc(F)c(Cl)c(N)c1Cl (stereo not shown) [Compound 150] | – | – | – | – | 5 (Level 5: the growth inhibition rate is greater than 85%) | 5 (Level 5: the growth inhibition rate is greater than 85%) | 5 (Level 5: the growth inhibition rate is greater than 85%) | 5 (Level 5: the growth inhibition rate is greater than 85%) | 5 (Level 5: the growth inhibition rate is greater than 85%) | 5 (Level 5: the growth inhibition rate is greater than 85%)
10 | CC(Oc1nc(F)c(Cl)c(N)c1Cl)C(=O)Sc1ccoc1 (stereo not shown) [Compound 120] | – | – | – | – | 5 (Level 5: the growth inhibition rate is greater than 85%) | 5 (Level 5: the growth inhibition rate is greater than 85%) | 5 (Level 5: the growth inhibition rate is greater than 85%) | 5 (Level 5: the growth inhibition rate is greater than 85%) | 5 (Level 5: the growth inhibition rate is greater than 85%) | 5 (Level 5: the growth inhibition rate is greater than 85%)
11 | C=CCSC(=O)C(C)Oc1nc(F)c(Cl)c(N)c1Cl (stereo not shown) [Compound 89] | – | – | – | – | 5 (Level 5: the growth inhibition rate is greater than 85%) | 5 (Level 5: the growth inhibition rate is greater than 85%) | 5 (Level 5: the growth inhibition rate is greater than 85%) | 5 (Level 5: the growth inhibition rate is greater than 85%) | 5 (Level 5: the growth inhibition rate is greater than 85%) | 5 (Level 5: the growth inhibition rate is greater than 85%)
12 | CCOC(=O)CSC(=O)C(C)Oc1nc(F)c(Cl)c(N)c1Cl (stereo not shown) [Compound 94] | – | – | – | – | 5 (Level 5: the growth inhibition rate is greater than 85%) | 5 (Level 5: the growth inhibition rate is greater than 85%) | 5 (Level 5: the growth inhibition rate is greater than 85%) | 5 (Level 5: the growth inhibition rate is greater than 85%) | 5 (Level 5: the growth inhibition rate is greater than 85%) | 5 (Level 5: the growth inhibition rate is greater than 85%)
